# Paper PMC6273789, “Asperpyrone-Type Bis-Naphtho-γ-Pyrones with COX-2–Inhibitory Activities from Marine-Derived Fungus Aspergillus niger” (Molecules, 2016)
# Target: T1, COX-2 (Ovis aries, UniProt P79208)
# T1 construct: gene PTGS2
# T1 sequence (P79208 17-603): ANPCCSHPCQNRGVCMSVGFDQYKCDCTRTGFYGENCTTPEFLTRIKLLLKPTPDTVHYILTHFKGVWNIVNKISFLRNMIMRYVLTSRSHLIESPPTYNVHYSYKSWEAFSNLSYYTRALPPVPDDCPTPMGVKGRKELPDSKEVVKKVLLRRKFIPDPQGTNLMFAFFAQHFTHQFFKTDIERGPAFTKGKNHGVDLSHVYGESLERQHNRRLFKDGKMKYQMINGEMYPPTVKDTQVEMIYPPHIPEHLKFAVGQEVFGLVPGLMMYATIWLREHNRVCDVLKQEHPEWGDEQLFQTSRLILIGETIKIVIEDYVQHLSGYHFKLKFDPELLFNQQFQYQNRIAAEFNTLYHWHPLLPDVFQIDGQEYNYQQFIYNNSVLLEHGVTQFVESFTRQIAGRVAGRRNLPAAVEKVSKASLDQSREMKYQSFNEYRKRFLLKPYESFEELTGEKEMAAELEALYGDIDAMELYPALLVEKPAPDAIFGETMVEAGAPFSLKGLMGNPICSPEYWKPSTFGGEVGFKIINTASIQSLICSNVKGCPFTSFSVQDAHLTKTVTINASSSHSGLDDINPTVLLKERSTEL
# Assay: COX (ovine) inhibitor screening kit
# Format: biochemical
row,IC50,Structure (SMILES)
1,4.2 µM,"COc1cc(OC)c2c(O)c3c(c(-c4c(O)cc5cc6c(c(O)c5c4OC)C(=O)CC(C)(O)O6)c2c1)OC(C)(O)CC3=O (stereo not drawn) [compound 6, aurasperone C]"
2,6.4 µM,"COc1cc(OC)c2c(O)c3c(=O)cc(C)oc3c(-c3c(O)cc4cc(O)c5c(=O)cc(C)oc5c4c3OC)c2c1 [compound 8, asperpyrone A]"
3,11.1 µM,"COc1cc(OC)c2c(O)c3c(=O)cc(C)oc3c(-c3c(O)cc4cc5c(c(O)c4c3OC)C(=O)CC(C)(O)O5)c2c1 (stereo not drawn) [compound 3, aurasperone F]"
